Source: patent US12552771B2, “Carboxylic acid containing azetidinyl compounds for the treatment of neurodegenerative diseases” (Celgene Corporation, priority 2021, dated 2026)

Target: T1, S1P5 receptors (Homo sapiens, UniProt Q9H228)
T1 construct: expressed in transfected cells; host or cells: CHO cells (membranes)
Assay: [35S]-GTPγS binding assay with CHO-S1P5 receptor membranes
Type: biochemical
Details: membranes of CHO cells expressing recombinant S1P5 receptors; measure of S1P5 agonism
Procedure: CHO cells expressing recombinant S1P5 receptors were cultured in 500 cm^2 culture trays and, once confluent, rinsed and detached with cell-lifting buffer (10 mM HEPES, 154 mM NaCl, 6.85 mM EDTA, pH 7.4). Cells were then pelleted by centrifugation, resuspended, and homogenized in membrane preparation buffer (10 mM HEPES and 10 mM EDTA, pH 7.4) using a Polytron PT 1200E homogenizer (Kinematica, Luzern, Switzerland). Cellular proteins were pelleted by centrifugation at 48,000×g at 4° C. for 30 minutes. The resulting supernatant was discarded, and the pellet was re-suspended again in membrane preparation buffer, homogenized for a second time, and then centrifuged again as described above. The final cellular protein pellet was suspended in ice cold resuspension buffer (10 mM HEPES and 0.1 mM EDTA, pH 7.4), divided into aliquots, and stored at −80° C. until use.
Functional binding assays for [^35]-GTPγS were performed in 96-well non-binding surface plates with a final volume of 200 μL. The test compounds were serially diluted in DMSO and added to assay plates using a Tecan D300E digital printer with a total volume of […]. The control sphingosine-1-phosphate (SiP) was prepared separately by preparing a 400 μM stock solution from a 100 nmol pellet of SiP in 10 mM Na2CO3 with 2% […]. The serial dilution of SiP was done using complete assay buffer (20 mM HEPES, 10 mM MgCl2, 100 mM NaCl, 1 mM EDTA, 0.1% fatty acid free bovine serum albumin (BSA), and 30 μg/mL saponin, pH 7.4) and transferred to wells already containing 0.4 μL DMSO. All the wells were then loaded to a total volume of 40 μL of complete assay buffer, except the non-specific binding (NSB) wells. For NSB wells, 40 μL/well of 50 μM GTPγS (Sigma Aldrich, cat #G8634, St. Louis, MO) was added to wells containing 0.4 μL of DMSO. The assay was started by the addition of 120 μL/well of CHO-S1P receptor membrane solution containing 40 μg/mL of membrane protein, 16.67 μM guanosine diphosphate (GDP; Sigma Aldrich, cat #G7127, St. Louis, MO), and 2.5 mg/mL of WGA PVT SPA beads in complete buffer. Assay plates were then sealed and incubated at room temperature with gentle agitation for 30 minutes. Next, 40 μL/well of 1 nM of [^35]-GTPγS (PerkinElmer, cat #NEG030X250UC, Waltham, MA) in basic assay buffer (20 mM HEPES, 10 mM MgCl2, 100 mM NaCl, and 1 mM EDTA, pH7.4) was added to the assay plates to yield a final concentration of 200 pM and the plates were further incubated for 40 minutes at room temperature with gentle agitation. The assay was terminated by centrifugation of the plates at 1000 rpm for 3 minutes using an Eppendorf 5810R centrifuge (Eppendorf, Hamburg, Germany) and G protein bound radioactivity was quantitated using a MicroBeta2 microplate scintillation counter (PerkinElmer, Waltham, MA). As G protein bound radioactivity directly correlates to receptor activation and coupling to the G protein, this assay is a measure of S1P5 agonism.

T1 sequence (Q9H228 whole entry): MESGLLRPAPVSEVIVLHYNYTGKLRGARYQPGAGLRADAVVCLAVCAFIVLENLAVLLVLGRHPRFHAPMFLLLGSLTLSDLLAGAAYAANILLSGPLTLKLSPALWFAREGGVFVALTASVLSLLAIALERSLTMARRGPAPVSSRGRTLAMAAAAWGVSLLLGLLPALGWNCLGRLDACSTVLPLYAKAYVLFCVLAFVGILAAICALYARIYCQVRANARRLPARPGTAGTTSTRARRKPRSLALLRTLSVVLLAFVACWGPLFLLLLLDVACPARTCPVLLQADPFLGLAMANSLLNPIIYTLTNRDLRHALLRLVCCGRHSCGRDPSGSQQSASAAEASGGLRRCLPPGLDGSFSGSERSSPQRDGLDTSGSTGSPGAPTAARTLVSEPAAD

Structure (SMILES) | EC50 [nM]
O=C(O)C1CCN(Cc2ccc(C3CN(c4ccc(C5CC5)c(Cl)c4)C3)cc2)CC1 [Compound 42, 1-(4-(1-(3-chloro-4-cyclopropylphenyl)azetidin-3-yl)benzyl)piperidine-4-carboxylic acid] | 100 to 1000
Cc1cc(C2CN(c3ccccc3)C2)cc(C)c1CN1CCC(C(=O)O)CC1 [Compound 45, 1-(2,6-dimethyl-4-(1-phenylazetidin-3-yl)benzyl)piperidine-4-carboxylic acid] | 100 to 1000
O=C(O)C1CCN(Cc2ccc(C3CN(c4ccccc4F)C3)cc2)CC1 [Compound 40, 1-(4-(1-(2-fluorophenyl)azetidin-3-yl)benzyl)piperidine-4-carboxylic acid] | 100 to 1000
Cc1cc(C2CN(c3c(Cl)cccc3Cl)C2)cc(C)c1CN1CC[C@@H](C(=O)O)C1 [Compound 60, (R)-1-(4-(1-(2,6-dichlorophenyl)azetidin-3-yl)-2,6-dimethylbenzyl) pyrrolidine-3-carboxylic acid] | ≤ 10
Cc1cc(C2CN(c3c(Cl)cccc3Cl)C2)cc(C)c1CN1CC[C@H](C(=O)O)C1 [Compound 62, (S)-1-(4-(1-(2,6-dichlorophenyl)azetidin-3-yl)-2,6-dimethylbenzyl)-pyrrolidine-3-carboxylic acid] | ≤ 10
Cc1cc(C2CN(c3ccc(C4CC4)cc3)C2)cc(C)c1CN1CCC(C(=O)O)CC1 [Compound 48, 1-(4-(1-(4-cyclopropylphenyl)azetidin-3-yl)-2,6-dimethylbenzyl)piperidine-4-carboxylic acid] | 1000 to 10000
CC(C)c1cc(C2CN(c3c(Cl)cccc3Cl)C2)cc(C(C)C)c1CN1CCC(C(=O)O)CC1 [Compound 53, 1-(4-(1-(2,6-dichlorophenyl)azetidin-3-yl)-2,6-diisopropylbenzyl)piperidine-4-carboxylic acid] | 100 to 1000
O=C(O)C1CN(C2CCc3cc(C4CN(c5cccc(F)c5)C4)ccc32)C1 (single isomer, unassigned) [Compound 8b, 1-(5-(1-(3-fluorophenyl)azetidin-3-yl)-2,3-dihydro-1H-inden-1-yl)azetidine-3-carboxylic acid] | 100 to 1000
O=C(O)C1CCN(Cc2ccc(N3CC(c4c(Cl)cccc4Cl)C3)nc2)CC1 [Compound 32, 1-((6-(3-(2,6-dichlorophenyl)azetidin-1-yl)pyridin-3-yl)methyl)piperidine-4-carboxylic acid] | 10 to 100
O=C(O)C1CCN(C2CCc3cc(C4CN(c5cccc(F)c5)C4)ccc32)CC1 (single isomer, unassigned) [Compound 3b, 1-(5-(1-(3-fluorophenyl)azetidin-3-yl)-2,3-dihydro-1H-inden-1-yl)piperidine-4-carboxylic acid] | 1000 to 10000
O=C(O)C1CN(C2CCc3cc(C4CN(c5cccc(F)c5)C4)ccc32)C1 (single isomer, unassigned) [Compound 8a, 1-(5-(1-(3-fluorophenyl)azetidin-3-yl)-2,3-dihydro-1H-inden-1-yl)azetidine-3-carboxylic acid] | 1000 to 10000
O=C(O)C1CCN(Cc2ccc(N3CC(c4c(Cl)cccc4Cl)C3)cn2)CC1 [Compound 29, 1-((5-(3-(2,6-dichlorophenyl)azetidin-1-yl)pyridin-2-yl)methyl)piperidine-4-carboxylic acid] | 10 to 100
CC(C)(c1ccc(C2CN(c3c(Cl)cccc3Cl)C2)nc1)N1CCC(C(=O)O)CC1 [Compound 87, 1-(2-(6-(1-(2,6-dichlorophenyl)azetidin-3-yl)pyridin-3-yl)propan-2-yl)-piperidine-4-carboxylic acid] | 10 to 100
O=C(O)C1CCN(C2CCc3cc(C4CN(c5c(Cl)cccc5Cl)C4)ccc32)CC1 (single isomer, unassigned) [Compound 1a, 1-(5-(1-(2,6-dichlorophenyl)azetidin-3-yl)-2,3-dihydro-1H-inden-1-yl)piperidine-4-carboxylic acid] | ≤ 10
Cc1cc(C2CN(c3c(C)cccc3F)C2)cc(C)c1CN1CCC(C(=O)O)CC1 [Compound 66, 1-(4-(1-(2-fluoro-6-methylphenyl)azetidin-3-yl)-2,6-dimethylbenzyl)-piperidine-4-carboxylic acid] | ≤ 10
O=C(O)C1CCN(C2CCc3cc(C4CN(c5c(Cl)cccc5Cl)C4)ccc32)CC1 (single isomer, unassigned) [Compound 1b, 1-(5-(1-(2,6-dichlorophenyl)azetidin-3-yl)-2,3-dihydro-1H-inden-1-yl)piperidine-4-carboxylic acid] | 100 to 1000
O=C(O)C1CCN(Cc2ccc(C3CN(c4ccccc4)C3)cc2)CC1 [Compound 39, 1-(4-(1-phenylazetidin-3-yl)benzyl)piperidine-4-carboxylic acid] | 1000 to 10000
O=C(O)C1CCN(Cc2ccc(C3CN(c4c(Cl)cccc4Cl)C3)cc2C2CC2)CC1 [Compound 56, 1-(2-cyclopropyl-4-(1-(2,6-dichlorophenyl)azetidin-3-yl)benzyl)piperidine-4-carboxylic acid] | ≤ 10

The remaining lines, values ahead:

EC50 [nM] | Structure (SMILES)
100 to 1000 | Cc1cc(CN2CCC(C(=O)O)CC2)ncc1C1CN(c2c(Cl)cccc2Cl)C1 [Compound 77, 1-((5-(1-(2,6-dichlorophenyl)azetidin-3-yl)-4-methylpyridin-2-yl)methyl)-piperidine-4-carboxylic acid]
10 to 100 | Cc1cc(CN2CCC(C(=O)O)CC2)c(C)nc1C1CN(c2c(Cl)cccc2Cl)C1 [Compound 83, 1-((6-(1-(2,6-dichlorophenyl)azetidin-3-yl)-2,5-dimethyl-pyridin-3-yl)methyl)piperidine-4-carboxylic acid]
10 to 100 | O=C(O)C1CCN(Cc2ccc(C3CN(c4c(Cl)cccc4Cl)C3)cc2)CC1 [Compound 11, 1-(4-(1-(2,6-dichlorophenyl)azetidin-3-yl)benzyl)piperidine-4-carboxylic acid]
≤ 10 | Cc1cc(C2CN(c3c(Cl)cccc3Cl)C2)c(C)cc1CN1CCC(C(=O)O)CC1 [Compound 19, 1-(4-(1-(2,6-dichlorophenyl)azetidin-3-yl)-2,5-dimethylbenzyl)piperidine-4-carboxylic acid]
10 to 100 | Cc1cc(CN2CCC(C(=O)O)CC2)nc(C)c1C1CN(c2c(Cl)cccc2Cl)C1 [Compound 84, 1-((5-(1-(2,6-dichlorophenyl)azetidin-3-yl)-4,6-dimethyl-pyridin-2-yl)methyl)piperidine-4-carboxylic acid]
≤ 10 | O=C(O)C1CCN(Cc2ccc(C3CN(c4c(Cl)cccc4Cl)C3)cc2F)CC1 [Compound 23, 1-(4-(1-(2,6-dichlorophenyl)azetidin-3-yl)-2-fluorobenzyl)piperidine-4-carboxylic acid]
≤ 10 | Cc1cc(CN2CCC(C(=O)O)CC2)cc(C)c1N1CC(c2c(Cl)cccc2Cl)C1 [Compound 31, 1-(4-(3-(2,6-dichlorophenyl)azetidin-1-yl)-3,5-dimethylbenzyl)piperidine-4-carboxylic acid]
100 to 1000 | Cc1cc(CN2CCC(C(=O)O)CC2)cnc1C1CN(c2c(Cl)cccc2Cl)C1 [Compound 79, 1-((6-(1-(2,6-dichlorophenyl)azetidin-3-yl)-5-methylpyridin-3-yl)methyl)piperidine-4-carboxylic acid]
≤ 10 | Cc1cc(C2CN(c3c(Cl)cccc3Cl)C2)cc(C2CC2)c1CN1CCC(C(=O)O)CC1 [Compound 57, 1-(2-cyclopropyl-4-(1-(2,6-dichlorophenyl)azetidin-3-yl)-6-methylbenzyl)-piperidine-4-carboxylic acid]
